Measurements: paper PMC4076210, “Discovery of Novel AKT Inhibitors with Enhanced Anti-Tumor Effects in Combination with the MEK Inhibitor” (PLoS ONE, 2014)
Where two headings read alike, the source gives them in different places.

Legend:
Assay in all cases: Kinase panel
Format in all cases: biochemical
ARK5(h) = biological target: T1, ARK5(h) (Homo sapiens, UniProt O60285)
T1 construct: purchased Millipore KinaseProfiler
T1 sequence (O60285 1-661): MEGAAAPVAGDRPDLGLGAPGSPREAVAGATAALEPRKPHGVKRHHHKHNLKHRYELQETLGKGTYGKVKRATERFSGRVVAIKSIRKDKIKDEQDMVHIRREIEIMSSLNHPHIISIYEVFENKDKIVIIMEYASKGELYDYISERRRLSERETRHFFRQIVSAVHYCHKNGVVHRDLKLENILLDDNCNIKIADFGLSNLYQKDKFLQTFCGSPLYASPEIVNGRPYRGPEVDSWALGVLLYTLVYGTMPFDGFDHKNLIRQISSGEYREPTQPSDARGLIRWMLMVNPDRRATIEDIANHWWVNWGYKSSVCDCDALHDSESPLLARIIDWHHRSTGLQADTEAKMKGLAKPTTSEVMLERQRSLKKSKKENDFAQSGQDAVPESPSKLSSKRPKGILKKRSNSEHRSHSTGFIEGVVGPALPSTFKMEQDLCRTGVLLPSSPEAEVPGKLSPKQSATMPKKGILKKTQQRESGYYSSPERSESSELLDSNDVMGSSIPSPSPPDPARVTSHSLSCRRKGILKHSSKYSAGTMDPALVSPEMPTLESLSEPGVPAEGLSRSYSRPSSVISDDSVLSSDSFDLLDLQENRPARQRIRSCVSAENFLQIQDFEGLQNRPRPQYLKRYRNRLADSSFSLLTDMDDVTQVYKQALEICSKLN

BrSK2(h) = biological target: T2, BrSK2(h) (Homo sapiens, UniProt Q8IWQ3)
T2 construct: purchased Millipore KinaseProfiler
T2 sequence (Q8IWQ3 1-736): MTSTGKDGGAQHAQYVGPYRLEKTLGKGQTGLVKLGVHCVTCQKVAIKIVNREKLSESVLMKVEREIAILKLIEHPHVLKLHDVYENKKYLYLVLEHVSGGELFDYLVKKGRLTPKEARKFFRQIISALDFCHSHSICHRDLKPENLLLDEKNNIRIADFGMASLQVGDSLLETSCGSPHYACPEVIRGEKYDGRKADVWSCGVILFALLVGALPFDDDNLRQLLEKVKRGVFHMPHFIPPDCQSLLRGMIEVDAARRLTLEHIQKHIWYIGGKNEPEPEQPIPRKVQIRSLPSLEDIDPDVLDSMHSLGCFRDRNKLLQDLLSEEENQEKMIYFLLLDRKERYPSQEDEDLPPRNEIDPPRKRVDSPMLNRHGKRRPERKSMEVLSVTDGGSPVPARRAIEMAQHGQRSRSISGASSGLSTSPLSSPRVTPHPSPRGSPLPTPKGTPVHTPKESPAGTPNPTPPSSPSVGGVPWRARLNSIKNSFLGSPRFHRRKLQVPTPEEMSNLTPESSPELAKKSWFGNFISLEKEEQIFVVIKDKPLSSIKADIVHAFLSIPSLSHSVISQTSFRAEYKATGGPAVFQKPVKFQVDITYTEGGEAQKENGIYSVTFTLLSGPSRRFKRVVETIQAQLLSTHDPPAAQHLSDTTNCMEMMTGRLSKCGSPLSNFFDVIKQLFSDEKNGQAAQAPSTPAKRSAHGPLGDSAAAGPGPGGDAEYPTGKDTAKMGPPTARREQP

cSRC(h) = biological target: T3, cSRC(h) (Homo sapiens, UniProt P12931)
T3 construct: purchased Millipore KinaseProfiler

EphA7(h) = biological target: T4, EphA7(h) (Homo sapiens, UniProt Q15375)
T4 construct: purchased Millipore KinaseProfiler

HIPK1(h) = biological target: T5, HIPK1(h) (Homo sapiens, UniProt Q86Z02)
T5 construct: purchased Millipore KinaseProfiler

MSSK1(h) = biological target: T6, MSSK1(h) (Homo sapiens, UniProt Q9UPE1)
T6 construct: purchased Millipore KinaseProfiler

NEK2(h) = biological target: T7, NEK2(h) (Homo sapiens, UniProt P51955)
T7 construct: purchased Millipore KinaseProfiler
T7 sequence (P51955 1-445): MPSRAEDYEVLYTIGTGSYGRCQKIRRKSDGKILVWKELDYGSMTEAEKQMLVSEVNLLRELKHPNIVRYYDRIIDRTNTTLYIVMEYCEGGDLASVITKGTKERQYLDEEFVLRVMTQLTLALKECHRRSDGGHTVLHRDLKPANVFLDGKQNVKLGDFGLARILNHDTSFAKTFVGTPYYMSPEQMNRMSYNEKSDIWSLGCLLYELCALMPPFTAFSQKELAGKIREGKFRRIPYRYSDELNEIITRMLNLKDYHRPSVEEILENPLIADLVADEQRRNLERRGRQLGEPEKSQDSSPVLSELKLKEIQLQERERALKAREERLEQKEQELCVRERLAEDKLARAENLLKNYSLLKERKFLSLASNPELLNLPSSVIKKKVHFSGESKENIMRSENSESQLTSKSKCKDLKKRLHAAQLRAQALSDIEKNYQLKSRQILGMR

Pim-2(h) = biological target: T8, Pim-2(h) (Homo sapiens, UniProt Q9P1W9)
T8 construct: purchased Millipore KinaseProfiler

PKCδ(h) = biological target: T9, PKCδ(h) (Homo sapiens, UniProt Q05655)
T9 construct: purchased Millipore KinaseProfiler

PKCθ(h) = biological target: T10, PKCθ(h) (Homo sapiens, UniProt Q04759)
T10 construct: purchased Millipore KinaseProfiler

SAPK2a(T106M)(h) = biological target: T11, SAPK2a(T106M)(h) (Homo sapiens, UniProt Q16539, T106M)
T11 construct: purchased Millipore KinaseProfiler

SAPK3(h) = biological target: T12, SAPK3(h) (Homo sapiens, UniProt P53778)
T12 construct: purchased Millipore KinaseProfiler
T12 sequence (P53778 1-367): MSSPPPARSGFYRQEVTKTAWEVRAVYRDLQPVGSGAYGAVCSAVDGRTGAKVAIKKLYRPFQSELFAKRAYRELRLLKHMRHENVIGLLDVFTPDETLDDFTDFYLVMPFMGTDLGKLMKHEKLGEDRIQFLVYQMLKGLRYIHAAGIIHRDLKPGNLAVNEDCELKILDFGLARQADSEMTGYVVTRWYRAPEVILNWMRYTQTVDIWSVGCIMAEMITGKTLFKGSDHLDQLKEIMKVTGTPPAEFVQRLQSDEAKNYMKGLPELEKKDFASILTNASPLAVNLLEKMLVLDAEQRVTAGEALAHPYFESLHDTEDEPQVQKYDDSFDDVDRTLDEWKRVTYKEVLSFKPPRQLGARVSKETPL

T10 sequence (Q04759 whole entry): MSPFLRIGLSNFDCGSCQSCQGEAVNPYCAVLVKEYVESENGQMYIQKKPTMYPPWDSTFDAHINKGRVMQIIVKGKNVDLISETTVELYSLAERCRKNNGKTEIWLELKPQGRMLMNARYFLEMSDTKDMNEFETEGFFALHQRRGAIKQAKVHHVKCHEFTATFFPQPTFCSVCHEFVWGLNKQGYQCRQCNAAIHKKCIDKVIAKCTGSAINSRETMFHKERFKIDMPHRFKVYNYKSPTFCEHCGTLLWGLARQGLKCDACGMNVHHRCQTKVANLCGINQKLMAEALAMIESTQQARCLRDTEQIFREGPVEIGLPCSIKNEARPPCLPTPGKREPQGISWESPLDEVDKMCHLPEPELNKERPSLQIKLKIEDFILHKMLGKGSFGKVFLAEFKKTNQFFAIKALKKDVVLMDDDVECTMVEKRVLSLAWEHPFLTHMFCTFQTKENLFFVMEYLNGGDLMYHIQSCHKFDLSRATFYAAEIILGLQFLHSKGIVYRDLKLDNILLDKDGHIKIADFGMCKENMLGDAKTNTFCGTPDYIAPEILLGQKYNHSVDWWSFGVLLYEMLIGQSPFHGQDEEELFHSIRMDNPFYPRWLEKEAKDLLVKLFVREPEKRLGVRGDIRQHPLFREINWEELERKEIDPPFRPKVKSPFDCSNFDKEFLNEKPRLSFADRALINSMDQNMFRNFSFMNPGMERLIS
T6 sequence (Q9UPE1 whole entry): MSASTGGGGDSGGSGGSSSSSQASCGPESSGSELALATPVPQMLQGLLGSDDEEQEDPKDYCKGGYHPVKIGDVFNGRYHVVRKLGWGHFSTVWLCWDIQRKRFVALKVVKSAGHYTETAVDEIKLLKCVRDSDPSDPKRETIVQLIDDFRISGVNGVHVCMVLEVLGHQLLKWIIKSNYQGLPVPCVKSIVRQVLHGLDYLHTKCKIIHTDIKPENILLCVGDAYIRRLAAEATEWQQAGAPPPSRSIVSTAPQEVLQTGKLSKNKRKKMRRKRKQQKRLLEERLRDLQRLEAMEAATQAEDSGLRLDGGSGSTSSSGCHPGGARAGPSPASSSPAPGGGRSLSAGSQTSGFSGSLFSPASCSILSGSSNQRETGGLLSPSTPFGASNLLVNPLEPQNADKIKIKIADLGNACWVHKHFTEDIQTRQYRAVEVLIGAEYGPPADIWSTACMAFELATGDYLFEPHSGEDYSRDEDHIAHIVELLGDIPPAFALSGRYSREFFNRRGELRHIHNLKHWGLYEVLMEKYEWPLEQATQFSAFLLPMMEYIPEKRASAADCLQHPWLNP
T11 sequence (Q16539 whole entry T106M): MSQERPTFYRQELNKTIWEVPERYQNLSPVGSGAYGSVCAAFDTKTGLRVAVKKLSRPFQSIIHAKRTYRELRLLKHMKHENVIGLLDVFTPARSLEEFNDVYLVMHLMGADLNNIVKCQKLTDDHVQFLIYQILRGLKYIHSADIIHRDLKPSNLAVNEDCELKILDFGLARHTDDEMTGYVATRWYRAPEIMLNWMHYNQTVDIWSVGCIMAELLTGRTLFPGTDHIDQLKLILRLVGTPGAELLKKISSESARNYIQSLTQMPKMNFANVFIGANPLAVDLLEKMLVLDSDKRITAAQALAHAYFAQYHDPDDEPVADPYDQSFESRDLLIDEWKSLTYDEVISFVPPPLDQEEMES
T5 sequence (Q86Z02 whole entry): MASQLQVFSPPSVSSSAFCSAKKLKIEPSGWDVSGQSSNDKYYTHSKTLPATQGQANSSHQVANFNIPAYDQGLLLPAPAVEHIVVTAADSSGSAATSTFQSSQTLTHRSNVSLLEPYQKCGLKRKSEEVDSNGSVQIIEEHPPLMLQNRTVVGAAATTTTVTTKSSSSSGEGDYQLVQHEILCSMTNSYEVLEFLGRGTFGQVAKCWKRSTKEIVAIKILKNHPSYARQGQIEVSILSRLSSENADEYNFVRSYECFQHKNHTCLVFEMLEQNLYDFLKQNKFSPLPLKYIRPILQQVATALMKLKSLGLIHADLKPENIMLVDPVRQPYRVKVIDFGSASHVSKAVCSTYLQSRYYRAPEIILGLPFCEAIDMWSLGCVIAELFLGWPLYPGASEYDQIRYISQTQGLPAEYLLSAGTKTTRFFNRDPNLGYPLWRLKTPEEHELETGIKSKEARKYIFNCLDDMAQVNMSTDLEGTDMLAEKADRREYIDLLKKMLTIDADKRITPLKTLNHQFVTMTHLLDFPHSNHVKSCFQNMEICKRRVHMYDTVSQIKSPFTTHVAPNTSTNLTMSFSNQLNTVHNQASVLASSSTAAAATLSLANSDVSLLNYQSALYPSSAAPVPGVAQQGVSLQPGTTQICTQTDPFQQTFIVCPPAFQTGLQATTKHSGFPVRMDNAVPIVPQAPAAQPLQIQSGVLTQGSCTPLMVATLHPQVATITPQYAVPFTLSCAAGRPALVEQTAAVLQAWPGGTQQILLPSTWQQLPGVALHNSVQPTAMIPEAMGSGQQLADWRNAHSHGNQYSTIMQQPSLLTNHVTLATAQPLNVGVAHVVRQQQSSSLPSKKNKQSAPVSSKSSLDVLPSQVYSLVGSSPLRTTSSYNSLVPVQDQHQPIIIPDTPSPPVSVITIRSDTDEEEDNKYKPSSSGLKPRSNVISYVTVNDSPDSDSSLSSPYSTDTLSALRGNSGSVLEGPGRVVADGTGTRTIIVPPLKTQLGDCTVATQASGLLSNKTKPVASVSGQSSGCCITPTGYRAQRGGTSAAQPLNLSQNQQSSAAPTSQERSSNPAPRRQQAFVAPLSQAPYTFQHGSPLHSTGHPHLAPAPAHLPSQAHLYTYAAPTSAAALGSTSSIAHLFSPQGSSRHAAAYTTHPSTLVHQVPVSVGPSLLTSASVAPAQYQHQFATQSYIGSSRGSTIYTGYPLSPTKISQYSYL
T4 sequence (Q15375 28-998): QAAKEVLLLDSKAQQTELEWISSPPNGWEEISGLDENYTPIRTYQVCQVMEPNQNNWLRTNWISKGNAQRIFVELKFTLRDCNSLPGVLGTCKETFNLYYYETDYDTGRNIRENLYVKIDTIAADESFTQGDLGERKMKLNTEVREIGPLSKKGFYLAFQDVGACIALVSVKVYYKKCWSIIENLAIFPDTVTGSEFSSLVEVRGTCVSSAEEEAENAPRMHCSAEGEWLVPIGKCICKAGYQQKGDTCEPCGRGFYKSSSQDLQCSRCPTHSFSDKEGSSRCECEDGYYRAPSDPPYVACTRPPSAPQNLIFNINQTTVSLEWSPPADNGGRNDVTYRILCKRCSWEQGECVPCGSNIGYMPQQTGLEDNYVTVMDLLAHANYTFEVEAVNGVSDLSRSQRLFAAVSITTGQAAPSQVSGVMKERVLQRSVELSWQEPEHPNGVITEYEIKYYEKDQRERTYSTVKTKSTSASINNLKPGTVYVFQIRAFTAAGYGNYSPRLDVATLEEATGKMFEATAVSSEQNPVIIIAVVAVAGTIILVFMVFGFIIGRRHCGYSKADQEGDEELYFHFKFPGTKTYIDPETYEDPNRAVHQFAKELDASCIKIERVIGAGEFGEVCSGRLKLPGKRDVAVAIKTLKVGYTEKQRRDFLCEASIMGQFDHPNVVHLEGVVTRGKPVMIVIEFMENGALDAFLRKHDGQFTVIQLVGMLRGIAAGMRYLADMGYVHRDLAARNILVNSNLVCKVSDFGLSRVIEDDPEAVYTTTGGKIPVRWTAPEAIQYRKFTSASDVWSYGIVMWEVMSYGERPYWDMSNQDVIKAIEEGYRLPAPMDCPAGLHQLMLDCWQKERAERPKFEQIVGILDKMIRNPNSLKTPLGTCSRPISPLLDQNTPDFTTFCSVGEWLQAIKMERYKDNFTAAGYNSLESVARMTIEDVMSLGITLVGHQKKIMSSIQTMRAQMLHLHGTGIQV
T3 sequence (P12931 whole entry): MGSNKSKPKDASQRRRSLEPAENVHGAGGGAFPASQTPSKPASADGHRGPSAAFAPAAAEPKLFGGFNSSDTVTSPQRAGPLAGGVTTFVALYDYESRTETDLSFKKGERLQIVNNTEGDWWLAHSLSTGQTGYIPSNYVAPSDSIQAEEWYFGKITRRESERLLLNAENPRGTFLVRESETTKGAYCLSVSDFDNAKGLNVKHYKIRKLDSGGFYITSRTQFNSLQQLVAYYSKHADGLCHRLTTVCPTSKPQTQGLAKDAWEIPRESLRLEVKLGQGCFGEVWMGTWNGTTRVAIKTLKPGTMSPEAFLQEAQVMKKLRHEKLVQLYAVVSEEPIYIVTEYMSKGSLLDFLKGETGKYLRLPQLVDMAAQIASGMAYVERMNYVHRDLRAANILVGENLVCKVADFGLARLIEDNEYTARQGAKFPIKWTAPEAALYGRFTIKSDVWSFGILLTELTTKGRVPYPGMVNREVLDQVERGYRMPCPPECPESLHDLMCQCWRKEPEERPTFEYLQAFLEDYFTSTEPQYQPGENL
T9 sequence (Q05655 whole entry): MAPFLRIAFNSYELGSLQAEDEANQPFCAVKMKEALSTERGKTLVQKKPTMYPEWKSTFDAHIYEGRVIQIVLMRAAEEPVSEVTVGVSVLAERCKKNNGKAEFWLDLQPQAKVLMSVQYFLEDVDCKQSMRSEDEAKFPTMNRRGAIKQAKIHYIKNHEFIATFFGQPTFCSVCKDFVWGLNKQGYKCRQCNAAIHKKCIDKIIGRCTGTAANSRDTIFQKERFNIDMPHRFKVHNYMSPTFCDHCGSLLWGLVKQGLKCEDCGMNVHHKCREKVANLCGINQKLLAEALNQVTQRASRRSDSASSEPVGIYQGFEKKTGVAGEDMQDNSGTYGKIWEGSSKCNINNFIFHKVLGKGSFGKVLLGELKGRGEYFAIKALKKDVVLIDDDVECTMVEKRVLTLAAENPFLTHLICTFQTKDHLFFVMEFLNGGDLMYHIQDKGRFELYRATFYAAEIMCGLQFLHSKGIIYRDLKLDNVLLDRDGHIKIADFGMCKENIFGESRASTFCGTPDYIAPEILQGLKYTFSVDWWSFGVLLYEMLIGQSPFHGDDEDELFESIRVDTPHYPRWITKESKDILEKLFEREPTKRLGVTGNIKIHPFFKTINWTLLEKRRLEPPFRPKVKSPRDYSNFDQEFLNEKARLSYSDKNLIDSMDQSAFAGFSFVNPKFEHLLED

Cn1ncc(Cl)c1-c1cc(C(=O)N[C@H](CN)Cc2cccc(F)c2)sc1Cl [GSK2110183]
inhibition at 0.5 µM (ARK5(h)): -6% | inhibition at 10 µM (ARK5(h)): 9% | inhibition at 0.5 µM (BrSK2(h)): -2% | inhibition at 10 µM (BrSK2(h)): 17% | inhibition at 0.5 µM (cSRC(h)): -1% | inhibition at 10 µM (cSRC(h)): 22% | inhibition at 0.5 µM (EphA7(h)): -4% | inhibition at 10 µM (EphA7(h)): 8% | inhibition at 0.5 µM (HIPK1(h)): 9% | inhibition at 10 µM (HIPK1(h)): 72% | inhibition at 0.5 µM (MSSK1(h)): -1% | inhibition at 10 µM (MSSK1(h)): 12% | inhibition at 0.5 µM (NEK2(h)): -10% | inhibition at 10 µM (NEK2(h)): -8% | inhibition at 0.5 µM (Pim-2(h)): 5% | inhibition at 10 µM (Pim-2(h)): 35% | inhibition at 0.5 µM (PKCδ(h)): 48% | inhibition at 10 µM (PKCδ(h)): 92% | inhibition at 0.5 µM (PKCθ(h)): 62% | inhibition at 10 µM (PKCθ(h)): 94% | inhibition at 0.5 µM (SAPK2a(T106M)(h)): -5% | inhibition at 10 µM (SAPK2a(T106M)(h)): -6% | inhibition at 0.5 µM (SAPK3(h)): -6% | inhibition at 10 µM (SAPK3(h)): 20%

Cn1ncc(Cl)c1-c1cc(C(=O)N[C@H](CN)Cc2ccc(F)c(F)c2)oc1Cl [GSK2141795]
inhibition at 0.5 µM (ARK5(h); 0.5 µM, read-out: % Inhibition): -5% | inhibition at 10 µM (ARK5(h); 10 µM, read-out: % Inhibition): 18% | inhibition at 0.5 µM (BrSK2(h); 0.5 µM, read-out: % Inhibition): 2% | inhibition at 10 µM (BrSK2(h); 10 µM, read-out: % Inhibition): 27% | inhibition at 0.5 µM (cSRC(h); 0.5 µM, read-out: % Inhibition): -6% | inhibition at 10 µM (cSRC(h); 10 µM, read-out: % Inhibition): 49% | inhibition at 0.5 µM (EphA7(h); 0.5 µM, read-out: % Inhibition): -3% | inhibition at 10 µM (EphA7(h); 10 µM, read-out: % Inhibition): 16% | inhibition at 0.5 µM (HIPK1(h); 0.5 µM, read-out: % Inhibition): 2% | inhibition at 10 µM (HIPK1(h); 10 µM, read-out: % Inhibition): 62% | inhibition at 0.5 µM (MSSK1(h); 0.5 µM, read-out: % Inhibition): -6% | inhibition at 10 µM (MSSK1(h); 10 µM, read-out: % Inhibition): 10% | inhibition at 0.5 µM (NEK2(h); 0.5 µM, read-out: % Inhibition): -4% | inhibition at 10 µM (NEK2(h); 10 µM, read-out: % Inhibition): 2% | inhibition at 0.5 µM (Pim-2(h); 0.5 µM, read-out: % Inhibition): -7% | inhibition at 10 µM (Pim-2(h); 10 µM, read-out: % Inhibition): 9% | inhibition at 0.5 µM (PKCδ(h); 0.5 µM, read-out: % Inhibition): 67% | inhibition at 10 µM (PKCδ(h); 10 µM, read-out: % Inhibition): 85% | inhibition at 0.5 µM (PKCθ(h); 0.5 µM, read-out: % Inhibition): 82% | inhibition at 10 µM (PKCθ(h); 10 µM, read-out: % Inhibition): 94% | inhibition at 0.5 µM (SAPK2a(T106M)(h); 0.5 µM, read-out: % Inhibition): -15% | inhibition at 10 µM (SAPK2a(T106M)(h); 10 µM, read-out: % Inhibition): -33% | inhibition at 0.5 µM (SAPK3(h); 0.5 µM, read-out: % Inhibition): -14% | inhibition at 10 µM (SAPK3(h); 10 µM, read-out: % Inhibition): 14%
